The text below walks through data of patent publication US12448388B2, “PRMT5 inhibitors and uses thereof” (Gilead Sciences, Inc., priority 2023, dated 2025).

The test system of this assay is HCT116 MTAP-deleted cell lines. Nature of the assay: Cell viability assay (CellTiter-Glo, 7 days), HCT116 MTAP-deleted. The assay is classed as cell-based. The settings on record: Homo sapiens, HCT-116; cell viability assay, HCT116 MTAP-deleted; class symbols; read-out: CC50. A digest of the protocol:
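HCT116 MTAP-deleted and wild-type cells exposed to serially diluted compound for 7 days at 37 °C, 5% CO2. Viability read by CellTiter-Glo luminescence; CC50 derived per line, with selectivity comparing WT to MTAP-deleted, limited solubility can inflate values marked *.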

The structures appear in SMILES notation.

A word on the CC50: it is the concentration giving 50% cytotoxicity. As for `Nc1nc2cc(F)c(C(=O)N3CCC[C@@H]4Oc5cc(F)ccc5[C@@H]43)cc2n2cncc12` [Fg-25, (4-amino-7-fluoroimidazo[1,5-a]quinoxalin-8-yl)((4aS,9bS)-7-fluoro-3,4,4a,9b-tetrahydrobenzofuro[3,2-b]pyridin-1(2H)-yl)methanone], the CC50 was below 100 nM. As for `Cc1ncn2c1c(N)nc1cc(F)c(C(=O)N3CCC[C@@H]4Oc5cc(F)ccc5[C@@H]43)cc12` [Fg-26, (4-amino-7-fluoro-3-methylimidazo[1,5-a]quinoxalin-8-yl)((4aS,9bS)-7-fluoro-3,4,4a,9b-tetrahydrobenzofuro[3,2-b]pyridin-1(2H)-yl)methanone], the figure is below 100 nM; as for `Cc1ncn2c1c(N)nc1cnc(C(=O)N3CC(C)(C)CC4Oc5cc(OC(F)(F)F)ccc5C43)cc12` (centres unmarked) [Fg-27, (4-amino-3-methylimidazo[1,5-a]pyrido[3,4-e]pyrazin-8-yl)(3,3-dimethyl-7-(trifluoromethoxy)-3,4,4a,9b-tetrahydrobenzofuro[3,2-b]pyridin-1(2H)-yl)methanone], 100 to 1000 nM; as for `Nc1nc2cnc(C(=O)N3CCC[C@@H]4Oc5cc(Cl)ccc5[C@@H]43)cc2n2cncc12` [Fg-28, (4-aminoimidazo[1,5-a]pyrido[3,4-e]pyrazin-8-yl)((4aS,9bS)-7-chloro-3,4,4a,9b-tetrahydrobenzofuro[3,2-b]pyridin-1(2H)-yl)methanone], below 100 nM.

As to `Cc1ncn2c1c(N)nc1cnc(C(=O)N3CCC[C@@H]4Oc5cc(OC(F)(F)F)ccc5[C@@H]43)cc12` [Fg-30, (4-amino-3-methylimidazo[1,5-a]pyrido[3,4-e]pyrazin-8-yl)((4aS,9bS)-7-(trifluoromethoxy)-3,4,4a,9b-tetrahydrobenzofuro[3,2-b]pyridin-1(2H)-yl)methanone], the CC50 is below 100 nM. As to `Cc1ncn2c1c(N)nc1cnc(C(=O)N3CCC[C@@H]4Oc5cc(OC(F)(F)F)c(F)cc5[C@@H]43)cc12` [Fg-32, (4-amino-3-methylimidazo[1,5-a]pyrido[3,4-e]pyrazin-8-yl)((4aS,9bS)-8-fluoro-7-(trifluoromethoxy)-3,4,4a,9b-tetrahydrobenzofuro[3,2-b]pyridin-1(2H)-yl)methanone], the CC50 was below 100 nM. As to `Cc1ncn2c1c(N)nc1cc(F)c(C(=O)N3CC[C@H]4C[C@@H]3c3ccc(C(F)(F)F)nc3O4)cc12` [Fg-33, (4-amino-7-fluoro-3-methylimidazo[1,5-a]quinoxalin-8-yl)((2S,6R)-9-(trifluoromethyl)-3,4-dihydro-2H-2,6-methanopyrido[2,3-b][1,5]oxazocin-5(6H)-yl)methanone], the CC50 is below 100 nM. As for `Cc1ncn2c1c(N)nc1cc(F)c(C(=O)N3C[C@@H](C)O[C@@H]4Cc5cc(C(F)(F)F)ccc5[C@@H]43)cc12` [Fg-34, (4-amino-7-fluoro-3-methylimidazo[1,5-a]quinoxalin-8-yl)((2R,4aS,9aR)-2-methyl-7-(trifluoromethyl)-2,3,9,9a-tetrahydroindeno[2,1-b][1,4]oxazin-4(4aH)-yl)methanone], the CC50 was below 100 nM. As for `Cc1ncn2c1c(N)nc1cnc(C(=O)N3CC4(CC4)C[C@@H]4Oc5cc(C(F)(F)F)ccc5[C@@H]43)cc12` [Fg-36, (4-amino-3-methylimidazo[1,5-a]pyrido[3,4-e]pyrazin-8-yl)((4aS,9bS)-7-(trifluoromethyl)-4a,9b-dihydro-2H-spiro[benzofuro[3,2-b]pyridine-3,1′-cyclopropan]-1(4H)-yl)methanone], the figure is below 100 nM; as for `Cc1ncn2c1c(N)nc1cnc(C(=O)N3C[C@@H](C)C[C@@H]4Oc5cc(C(F)(F)F)ccc5[C@@H]43)cc12` [Fg-37, (4-amino-3-methylimidazo[1,5-a]pyrido[3,4-e]pyrazin-8-yl)((3S,4aS,9bS)-3-methyl-7-(trifluoromethyl)-3,4,4a,9b-tetrahydrobenzofuro[3,2-b]pyridin-1(2H)-yl)methanone], below 100 nM; as for `Cc1ncn2c1c(N)nc1cnc(C(=O)N3C[C@H](C)C[C@@H]4Oc5cc(C(F)(F)F)c(F)cc5[C@@H]43)cc12` [Fg-39, (4-amino-3-methylimidazo[1,5-a]pyrido[3,4-e]pyrazin-8-yl)((3R,4aS,9bS)-8-fluoro-3-methyl-7-(trifluoromethyl)-3,4,4a,9b-tetrahydrobenzofuro[3,2-b]pyridin-1(2H)-yl)methanone], below 100 nM.

Take `Cc1ncc2c(N)nc3cnc(C(=O)N4CCC[C@@H]5Oc6cc(S(F)(F)(F)(F)F)ccc6[C@@H]54)cc3n12` [Fg-43, (4-amino-1-methylimidazo[1,5-a]pyrido[3,4-e]pyrazin-8-yl)((4aS,9bS)-7-(pentafluoro-16-sulfaneyl)-3,4,4a,9b-tetrahydrobenzofuro[3,2-b]pyridin-1(2H)-yl)methanone]: the CC50 is below 100 nM. For the compound `Cc1ncc2c(N)nc3cnc(C(=O)N4C[C@@H](F)C[C@@H]5Oc6cc(OC(F)(F)F)ccc6[C@@H]54)cc3n12` [Fg-45, (4-amino-1-methylimidazo[1,5-a]pyrido[3,4-e]pyrazin-8-yl)((3S,4aS,9bS)-3-fluoro-7-(trifluoromethoxy)-3,4,4a,9b-tetrahydrobenzofuro[3,2-b]pyridin-1(2H)-yl)methanone], the CC50 is below 100 nM. As for `Cc1ncn2c1c(N)nc1ccc(C(=O)N3C[C@@H](F)C[C@@H]4Oc5cc(OC(F)(F)F)ccc5[C@@H]43)cc12` [Fg-47, (4-amino-3-methylimidazo[1,5-a]quinoxalin-8-yl)((3S,4aS,9bS)-3-fluoro-7-(trifluoromethoxy)-3,4,4a,9b-tetrahydrobenzofuro[3,2-b]pyridin-1(2H)-yl)methanone], the figure is below 100 nM; as for `CCc1cc2nc(N)c3cncn3c2cc1C(=O)N(C)[C@@H]1COc2cc(C(F)(F)F)ccc21` [Fg-52, (S)-4-amino-7-ethyl-N-methyl-N-(6-(trifluoromethyl)-2,3-dihydrobenzofuran-3-yl)imidazo[1,5-a]quinoxaline-8-carboxamide], below 100 nM. As to `Nc1nc2cc(C3CC3)c(C(=O)N3CCC[C@@H]4Oc5cc(C(F)(F)F)ccc5[C@@H]43)cc2n2cncc12` [Fg-56, (4-amino-7-cyclopropylimidazo[1,5-a]quinoxalin-8-yl)((4aS,9bS)-7-(trifluoromethyl)-3,4,4a,9b-tetrahydrobenzofuro[3,2-b]pyridin-1(2H)-yl)methanone], the CC50 is 100 to 1000 nM. `Nc1nc2cnc(C(=O)N3CC4(CC4)C[C@@H]4Oc5cc(OC(F)(F)F)ccc5[C@@H]43)cc2n2cncc12` [Fg-61, (4-aminoimidazo[1,5-a]pyrido[3,4-e]pyrazin-8-yl)((4aS,9bS)-7-(trifluoromethoxy)-4a,9b-dihydro-2H-spiro[benzofuro[3,2-b]pyridine-3,1′-cyclopropan]-1(4H)-yl)methanone]: the 50% cytotoxic concentration (CC50) was below 100 nM. As for `Cc1ncn2c1c(N)nc1cnc(C(=O)N3CCC[C@@H]4Oc5c(ccc(OC(F)(F)F)c5F)[C@@H]43)cc12` [Fg-62, (4-amino-3-methylimidazo[1,5-a]pyrido[3,4-e]pyrazin-8-yl)((4aS,9bS)-6-fluoro-7-(trifluoromethoxy)-3,4,4a,9b-tetrahydrobenzofuro[3,2-b]pyridin-1(2H)-yl)methanone], the figure is below 100 nM; as for `Cc1ncn2c1c(N)nc1cnc(C(=O)N3C[C@H](C)C[C@@H]4Oc5c(ccc(C(F)(F)F)c5F)[C@@H]43)cc12` [Fg-63, (4-amino-3-methylimidazo[1,5-a]pyrido[3,4-e]pyrazin-8-yl)((3R,4aS,9bS)-6-fluoro-3-methyl-7-(trifluoromethyl)-3,4,4a,9b-tetrahydrobenzofuro[3,2-b]pyridin-1(2H)-yl)methanone], below 100 nM. In the case of `Cc1ncn2c1c(N)nc1cnc(C(=O)N3CC[C@H]4C[C@@H]3c3ccc(C(F)(F)F)cc3O4)cc12` [Fg-64, (4-amino-3-methylimidazo[1,5-a]pyrido[3,4-e]pyrazin-8-yl)((2S,6R)-9-(trifluoromethyl)-3,4-dihydro-2H-2,6-methanobenzo[b][1,5]oxazocin-5(6H)-yl)methanone], the CC50 is below 100 nM.
